Measurements taken from PMC11842024, “Reversible male contraception by targeted inhibition of serine/threonine kinase 33” (Science (New York, N.Y.), 2024).

Tests used:
[1] = target: T1, STK33 (Homo sapiens, UniProt Q9BYT3); assay: NanoBRET target engagement intracellular kinase assay; format: cell-based; parameters: host or cells: HEK293 (HEK293T cultured); conditions: for IC50: HEK293 cells, 2 hours incubation
Method: (§1) NanoBRET Target Engagement intracellular kinase assay. HEK293T cells were cultured in […]
(§2) The cell line underwent authentication by short tandem repeat (STR) profiling at Cytogenetics and Cell Authentication Core (CCAC) at MD Anderson Cancer Center. NanoBRET Target Engagement intracellular kinase assay, K-10 assay (Cat. # N2641), K-9 assay (Cat. # N2631), transfection reagent FuGENE HD (Cat. # E2311), transfection carrier DNA (Cat. # E4881), NanoLuc-STK33 fusion vector (Cat. # NV2111), NanoLuc-RET fusion vector (Cat. # NV1951), NanoLuc-CLK1 fusion vector (Cat. # NV1131), NanoLuc-CLK2 fusion vector (Cat. # NV1141), and NanoLuc-CLK4 fusion vector (Cat. # NV1151) were purchased from Promega. The measurement of test compound engagement with cellular target protein was performed in a 384-well format according to manufacturer’s instructions. HEK293 cells were transiently transfected with NanoLuc (STK33, RET, CLK1, CLK2, and CLK4) fusion vectors. After 36 hours of transfection, cells were treated with a fixed concentration of tracer (recommended by Promega) followed by compounds (inhibitors) for 2 hours of incubation. To determine the test compound […]
(§3) 0.4 nM at a fixed tracer concentration. Staurosporine was measured in parallel as a positive control.
(§4) Freshly prepared NanoBRET Nano-Glo substrate plus extracellular NanoLuc inhibitor was then added to initiate the subsequent bioluminescence resonance energy transfer (BRET) measurements using a CLARIOstar Plus BMG LABTECH plate reader. Data analysis was done by measuring the ratio of acceptor emission to donor emission (BRET ratio) and normalized by subtracting no-tracer-control-background. IC50 values were obtained by nonlinear regression using a four-parameter equation in GraphPad Prism 7 (San Diego, CA).

[2] = target: T2, CLK4 (Homo sapiens, UniProt Q9HAZ1); assay: as above; format: cell-based; parameters: host or cells: HEK293 (HEK293T cultured); conditions: for IC50: HEK293 cells, 2 hours incubation; for Fold NanoBRET IC50 CLK4 over STK33 (in parentheses): selectivity vs STK33
T2 sequence (Q9HAZ1 whole entry): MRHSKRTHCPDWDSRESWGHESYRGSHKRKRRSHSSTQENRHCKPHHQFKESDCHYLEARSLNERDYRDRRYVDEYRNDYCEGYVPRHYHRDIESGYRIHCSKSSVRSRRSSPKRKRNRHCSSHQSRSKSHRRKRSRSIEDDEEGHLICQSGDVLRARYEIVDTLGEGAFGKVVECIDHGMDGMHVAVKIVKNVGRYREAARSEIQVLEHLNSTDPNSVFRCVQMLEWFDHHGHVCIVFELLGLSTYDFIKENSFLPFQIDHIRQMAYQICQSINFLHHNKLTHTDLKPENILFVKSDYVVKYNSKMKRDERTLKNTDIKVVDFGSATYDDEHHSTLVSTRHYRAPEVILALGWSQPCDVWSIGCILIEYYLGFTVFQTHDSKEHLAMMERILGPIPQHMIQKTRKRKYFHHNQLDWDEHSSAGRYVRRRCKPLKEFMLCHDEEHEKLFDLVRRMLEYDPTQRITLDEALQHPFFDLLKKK
Method: as §1, §2, §3, §4

[3] = target: T3, CLK2 (Homo sapiens, UniProt P49760); assay: as above; format: cell-based; parameters: host or cells: HEK293 (HEK293T cultured); conditions: for IC50: HEK293 cells, 2 hours incubation; for Fold NanoBRET IC50 CLK2 over STK33 (in parentheses): selectivity vs STK33
T3 sequence (P49760 whole entry): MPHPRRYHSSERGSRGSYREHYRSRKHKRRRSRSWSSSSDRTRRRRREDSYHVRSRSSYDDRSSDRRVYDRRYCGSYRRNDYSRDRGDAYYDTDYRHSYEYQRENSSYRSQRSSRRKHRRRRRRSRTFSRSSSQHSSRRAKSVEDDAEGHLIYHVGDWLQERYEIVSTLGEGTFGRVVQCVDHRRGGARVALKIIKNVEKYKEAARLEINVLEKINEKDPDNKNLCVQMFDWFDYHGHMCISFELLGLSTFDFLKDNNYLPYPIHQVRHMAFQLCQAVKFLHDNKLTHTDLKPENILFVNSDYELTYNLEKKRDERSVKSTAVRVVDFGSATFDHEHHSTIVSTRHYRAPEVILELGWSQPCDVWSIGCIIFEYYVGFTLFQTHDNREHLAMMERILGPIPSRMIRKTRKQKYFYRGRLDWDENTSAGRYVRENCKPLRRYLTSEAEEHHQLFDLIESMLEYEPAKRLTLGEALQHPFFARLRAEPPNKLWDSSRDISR
Method: as §1, §2, §3, §4

[4] = target: T4, CLK1 (Homo sapiens, UniProt P49759); assay: as above; format: cell-based; parameters: host or cells: HEK293 (HEK293T cultured); conditions: for IC50: HEK293 cells, 2 hours incubation; for Fold NanoBRET IC50 CLK1 over STK33 (in parentheses): selectivity vs STK33
T4 sequence (P49759 whole entry): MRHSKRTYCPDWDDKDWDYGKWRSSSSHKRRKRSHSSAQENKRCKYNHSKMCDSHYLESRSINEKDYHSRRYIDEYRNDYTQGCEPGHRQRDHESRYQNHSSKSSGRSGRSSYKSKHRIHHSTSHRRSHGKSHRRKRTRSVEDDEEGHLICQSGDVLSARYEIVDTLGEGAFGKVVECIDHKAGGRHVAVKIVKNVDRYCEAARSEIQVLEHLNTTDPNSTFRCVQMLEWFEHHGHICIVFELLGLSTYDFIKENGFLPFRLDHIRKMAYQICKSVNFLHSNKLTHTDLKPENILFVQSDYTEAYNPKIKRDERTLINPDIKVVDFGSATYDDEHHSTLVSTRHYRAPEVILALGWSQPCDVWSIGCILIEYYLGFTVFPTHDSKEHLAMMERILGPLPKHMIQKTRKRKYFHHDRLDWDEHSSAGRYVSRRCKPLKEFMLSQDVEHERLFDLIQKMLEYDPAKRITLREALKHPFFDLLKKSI
Method: as §1, §2, §3, §4

[5] = target: T5, RET (Homo sapiens, UniProt P07949); assay: as above; format: cell-based; parameters: host or cells: HEK293 (HEK293T cultured); conditions: for IC50: HEK293 cells, 2 hours incubation; for Fold NanoBRET IC50 RET over STK33 (in parentheses): selectivity vs STK33
T5 sequence (P07949 29-1114): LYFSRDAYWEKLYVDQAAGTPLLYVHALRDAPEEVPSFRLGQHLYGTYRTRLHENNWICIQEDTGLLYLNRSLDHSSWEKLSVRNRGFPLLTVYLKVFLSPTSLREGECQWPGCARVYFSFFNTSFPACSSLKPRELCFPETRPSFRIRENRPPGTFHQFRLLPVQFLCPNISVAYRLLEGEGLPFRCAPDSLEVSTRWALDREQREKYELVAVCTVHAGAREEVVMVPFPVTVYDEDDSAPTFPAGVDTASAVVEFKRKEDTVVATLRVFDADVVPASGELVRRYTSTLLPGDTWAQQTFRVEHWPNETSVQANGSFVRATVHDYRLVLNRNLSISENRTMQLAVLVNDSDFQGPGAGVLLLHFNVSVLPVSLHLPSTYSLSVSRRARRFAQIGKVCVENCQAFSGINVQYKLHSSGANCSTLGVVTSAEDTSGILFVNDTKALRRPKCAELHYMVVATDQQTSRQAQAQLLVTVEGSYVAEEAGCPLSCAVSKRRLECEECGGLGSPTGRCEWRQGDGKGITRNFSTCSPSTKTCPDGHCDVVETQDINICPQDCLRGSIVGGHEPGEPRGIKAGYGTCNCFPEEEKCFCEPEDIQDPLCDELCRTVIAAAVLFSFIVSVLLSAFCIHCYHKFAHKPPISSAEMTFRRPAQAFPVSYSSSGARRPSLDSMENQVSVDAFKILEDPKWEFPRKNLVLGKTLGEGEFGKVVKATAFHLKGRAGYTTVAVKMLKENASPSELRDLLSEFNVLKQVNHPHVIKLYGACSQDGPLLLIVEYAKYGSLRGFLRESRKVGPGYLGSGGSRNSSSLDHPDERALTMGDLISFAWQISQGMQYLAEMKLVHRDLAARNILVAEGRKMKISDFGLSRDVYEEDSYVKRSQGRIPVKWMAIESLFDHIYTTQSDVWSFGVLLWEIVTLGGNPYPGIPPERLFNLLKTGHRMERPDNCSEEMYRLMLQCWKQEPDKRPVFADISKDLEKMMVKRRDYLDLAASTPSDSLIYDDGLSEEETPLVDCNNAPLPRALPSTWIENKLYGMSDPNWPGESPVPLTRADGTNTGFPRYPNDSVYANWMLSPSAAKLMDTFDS
Method: as §1, §2, §3, §4

[6] = Metabolic stability assay in liver microsomes (HLM); format: in vitro ADME, human; conditions: 2.0 µM, 0.5 mg protein/mL, NADPH, data >60 min is an extrapolated estimate; for half-life at 2 µM: human, liver microsomes, read-out: Metabolic stability HLM, t1/2
Method: (§5) Metabolic stability assay in liver microsomes. The stabilities of CDD-2110, CDD-2211, CDD-2212, CDD-2807, and CDD-3348 in liver microsomes with/without Uridine Diphosphate Glucuronic Acid (UDP-GA, a cofactor of UDP-glucuronosyltransferases) were performed and half-life was calculated as previously reported (36). Briefly, each CDD compound (2.0 μM) was incubated in the mouse or human liver microsomes (0.5 mg protein/mL) at 37°C in 1× PBS fortified with NADPH (1.0 mM) and with/without UDP-GA (2.5 mM). Alamethicin (25 µg/mL) as a pore forming agent was used for the glucuronidation (Table S2A). The samples were collected at specific time-points 0, 30, and 60 min in duplicate. The reactions were terminated by adding equivalent volume of ice-cold methanol (CH3OH) and vortexed. After centrifugation at 15000 g for 10 min, 3.0 μL of the supernatant was analyzed by Thermo TSQ Quantis MS coupled with a Thermo Vanquish UHPLC (San Jose, CA) equipped with a Luna C18 column (1 mm × 50 mm, 1.6 µm, Phenomenex, Torrance, CA). The column temperature was maintained at 40°C. CDD-2807 was monitored under the selected reaction monitoring (SRM) mode coupled with a positive electrospray ionization (ESI) source. The SRM ion pairs were 447→321 for CDD-2807.

[7] = target: T2, CLK4; assay: LanthaScreen binding assay (ThermoFisher SelectScreen); parameters: purchased SelectScreen Services (ThermoFisher)
From the text: (§6) In vitro biochemical assays. Several small molecule assays were outsourced to SelectScreen Services (ThermoFisher) for STK33 and for off-target kinases (data sets are available on demand).
(§7) These assays are LanthaScreen (binding assay) and Z’-LYTE (activity assay). Dose-responses were done with at least 5 different concentrations in duplicates, and parameters were optimized by calculations described below and provided with standard errors.
(§8) Calculation of Kd values for kinase inhibitors that bind to the ATP pocket of a kinase from LanthaScreen binding data. DynaFit (71) was used to fit complex equilibria where a tracer is displaced by a dilution series of a kinase inhibitor. This method relies on the concentration of inhibitor, as well as the concentration of kinase and tracer, and Kd of the tracer. The latter three parameters are tabulated by ThermoFisher for each kinase in the LanthaScreen assay panel. […]

[8] = target: T1, STK33; assay: as above; parameters: purchased SelectScreen Services (ThermoFisher)
From the text: as §6, §7, §8
Since Kd and Ki values are defined the same way, in other words, Kd = [E] [I] / [EI] = Ki, Kd and Ki values can be compared. […]

[9] = Metabolic stability assay in liver microsomes (MLM); format: in vitro ADME, mouse; conditions: 2.0 µM, 0.5 mg protein/mL, NADPH, data >60 min is an extrapolated estimate; for half-life at 2 µM: mouse, liver microsomes, read-out: Metabolic stability MLM, t1/2
Method: as §5

[10] = target: T3, CLK2; assay: Z'-LYTE activity assay (ThermoFisher SelectScreen); format: biochemical; parameters: purchased SelectScreen Services (ThermoFisher); conditions: [ATP] = Kmapp
From the text: as §6
(§9) These assays are LanthaScreen (binding assay) and Z’-LYTE (activity assay). Dose-responses were done with at least 5 different concentrations in duplicates, and parameters were optimized by calculations described below and provided with standard errors. […]
(§10) Calculation of Ki values for kinase inhibitors from Z’-LYTE inhibition data. The Morrison equation with [ATP] = Kmapp for competitive inhibition (GraphPad Prism 7, San Diego, CA) was used to get Ki values. Since Kd and Ki values are defined the same way, in other words, Kd = [E] [I] / [EI] = Ki, Kd and Ki values can be compared. […]

[11] = target: T4, CLK1; assay: Z'-LYTE activity assay (ThermoFisher SelectScreen); format: biochemical; parameters: purchased SelectScreen Services (ThermoFisher); conditions: [ATP] = Kmapp
From the text: as §6, §9, §10

[12] = target: T5, RET; assay: Z'-LYTE activity assay (ThermoFisher SelectScreen); format: biochemical; parameters: purchased SelectScreen Services (ThermoFisher); conditions: [ATP] = Kmapp
From the text: as §6, §9, §10

[13] = target: T1, STK33; assay: Kinase assay screening against STK33 at 500 nM; format: biochemical; parameters: purchased SelectScreen Services (ThermoFisher)

T1 sequence (Q9BYT3 whole entry): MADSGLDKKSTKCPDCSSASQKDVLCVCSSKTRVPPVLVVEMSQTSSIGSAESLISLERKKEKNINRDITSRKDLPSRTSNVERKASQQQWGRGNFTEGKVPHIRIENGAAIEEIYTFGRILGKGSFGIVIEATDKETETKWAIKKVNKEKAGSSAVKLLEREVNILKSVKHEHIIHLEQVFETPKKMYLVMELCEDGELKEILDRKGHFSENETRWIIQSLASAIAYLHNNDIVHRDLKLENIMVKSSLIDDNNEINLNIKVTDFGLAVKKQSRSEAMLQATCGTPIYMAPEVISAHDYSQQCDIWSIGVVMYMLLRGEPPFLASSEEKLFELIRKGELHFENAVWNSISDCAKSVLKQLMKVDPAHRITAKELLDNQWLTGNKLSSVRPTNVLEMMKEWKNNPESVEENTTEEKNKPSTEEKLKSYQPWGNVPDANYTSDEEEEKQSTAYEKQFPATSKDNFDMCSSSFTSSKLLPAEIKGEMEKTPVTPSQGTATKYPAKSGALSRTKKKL

Which results are given for `CN(C)[C@H]1CCN(C(=O)c2ccc3[nH]nc(C#Cc4ccccc4-c4ccccc4)c3c2)C1` [CDD-2212]?
IC50 [1]: 999 nM; IC50 [2]: 5880 nM; Fold NanoBRET IC50 CLK4 over STK33 (in parentheses) [2]: 6 X; IC50 [3]: 1550 nM; Fold NanoBRET IC50 CLK2 over STK33 (in parentheses) [3]: 1.5 X; IC50 [4]: 3230 nM; Fold NanoBRET IC50 CLK1 over STK33 (in parentheses) [4]: 3 X; IC50 [5]: 1090 nM; Fold NanoBRET IC50 RET over STK33 (in parentheses) [5]: 1.1 X; half-life at 2 µM [6]: 8 min; Kd [7]: 21.5 ± 1 nM; Kd [8]: 1.9 nM; half-life at 2 µM [9]: 9 min; Ki [10]: 54.8 ± 3 nM; Ki [11]: 507 ± 36 nM; Ki [12]: 2 ± 1.4 nM

Which IC50 [1] does the source give for `O=C(c1ccc2[nH]nc(C#Cc3ccccc3-c3ccccc3)c2c1)N1CCC2(CCCNC2)C1` (stereo not drawn) [Compound S4] here?
Its IC50 is 517 nM.

What does the source list for `CN(C)C1CCN(C(=O)c2ccc3[nH]nc(C#Cc4ccc(-c5ccccc5)cc4)c3c2)C1` (stereo not drawn) [Compound S10]?
IC50 [1]: 8710 nM; Kd [8]: 17.7 ± 0.7 nM

For `CN(C)C1CCN(C(=O)c2ccc3[nH]nc(Cc4ccccc4-c4ccccc4)c3c2)C1` (stereo not drawn) [Compound S11], which “kinase assay screening against STK33” value [13] is on record?
Its value is “not passing”.

With `NC1CCN(C(=O)c2ccc3[nH]nc(C#Cc4ccccc4-c4ccccc4)c3c2)C1` (stereo not drawn) [Compound S1] as the molecule, how does the IC50 [1] read?
The IC50 was 46 nM.

What about the “Metabolic stability HLM, t1/2” value [6] of the same molecule?
Its value is 277 min.

What about the “Metabolic stability MLM, t1/2” value [9] of the same molecule?
Its value is 42 min.

Which results are given for `CNC(=O)CCC1CCN(C(=O)C2CCN(C3CCN(C(=O)c4ccc5[nH]nc(C#Cc6ccccc6-c6ccccc6)c5c4)C3)CC2)CC1` (stereo not drawn) [CDD-3348]?
selectivity toward STK33 compared to CLK1, CLK2, CLK4, and RET [1]: > 10 fold; IC50 [1]: 169 nM; IC50 [2]: 3850 nM; Fold NanoBRET IC50 CLK4 over STK33 (in parentheses) [2]: 23 X; IC50 [3]: 2530 nM; Fold NanoBRET IC50 CLK2 over STK33 (in parentheses) [3]: 15 X; IC50 [4]: 6730 nM; Fold NanoBRET IC50 CLK1 over STK33 (in parentheses) [4]: 40 X; IC50 [5]: 6410 nM; Fold NanoBRET IC50 RET over STK33 (in parentheses) [5]: 38 X; half-life at 2 µM [6]: 13 min; Kd [7]: 26.2 ± 1.5 nM; Kd [8]: 0.06 nM; half-life at 2 µM [9]: 14 min; Ki [10]: 58.3 ± 3.3 nM; Ki [11]: 477 ± 34 nM; Ki [12]: 5.6 ± 0.5 nM

Which IC50 [1] does the source give for `O=C(c1ccc2[nH]nc(C#Cc3ccccc3-c3ccccc3)c2c1)N1CCC(O)C1` (stereo not drawn) [Compound S2] here?
The IC50 was 647 nM.

For `O=C(c1ccc2[nH]nc(C#Cc3ccccc3-c3ccccc3)c2c1)N1CC2(CCCCN2)C1` [Compound S6], which IC50 [1] is on record?
Its IC50 is 236 nM.
